According to patent US11078184B2, “Dexrabeprazole sodium compound and pharmaceutical composition thereof” (JIANGSU AOSAIKANG PHARMACEUTICAL CO., LTD., priority 2017, dated 2021):

Assays:
[1] = Determination of hygroscopic moisture; type: physicochemical; conditions: 25° C. thermostatic drier over saturated ammonium chloride solution, sodium salt
Method: Determination of hygroscopic moisture: 25±+1° C. Thermostatic Drier (with a saturated solution of ammonium chloride being placed at bottom of the drier).

[2] = Test of influence factors (stability: appearance and relevant materials by HPLC); type: physicochemical
Method: Chromatographic conditions of relevant materials: Chromatographic column: charged with octadecylsilane bonded silica as a filler (Agilent ZORBAX Extend C18, 250×4.6 mm, […]); Mobile phase A: 0.025 mol/L of phosphate solution (the pH of 0.025 mol/L of dipotassium phosphate solution was adjusted to 7.2 with phosphoric acid)-acetonitrile (95:5); Mobile phase B: methanol; Mobile phase C: acetonitrile; A linear gradient elution is carried out in accordance with the following table. Detection wavelength: 280 nm, 220 nm (for impurity H) Flowrate: 1.0 ml/min Column temperature: 25° C. Sample size: 5 μl Diluent: the pH of 0.1 mol/L of dipotassium phosphate solution was adjusted to 11.3 with 2 mol/L potassium hydroxide solution-methanol (45:55). Crystal forms A, B, and C (each 100 mg) were placed under different conditions, and sampled at Days 0, 10, 20, and 30 for detecting their characters and relevant materials, respectively.

[3] = Determination of angle of repose (powder flowability); type: physicochemical; conditions: average of three determinations; sodium salt
Method: Determination of angle of repose: BT-1001 Intelligent Powder Characteristic Tester (Dandong Bettersize Instrument Co., Ltd.)
Angle of repose is a key characteristic of the frictional resistance between powder particles, and is an important parameter for characterizing the powder flowability. The angle of repose is determined by measuring the height and the base radius of a cone formed by powders, with a calculation equation as follows: tan(α)=height/radius. The angle of reposes of crystal forms A and B were measured and compared for their difference, respectively.

[4] = Tap density, bulk density, compression coefficient and Hausner ratio; type: physicochemical; conditions: sodium salt
Method: The compression coefficient and the Hausner ratio closely related thereto are simple and fast methods for predicting the powder property, and are often used as the index for characterizing the powder flowability. Crystal forms A and B were sampled for measuring the tap density and bulk density of powder of different crystal forms, and then the compression coefficient and the Hausner ratio were calculated. Wherein, the compression coefficient (%)=[(the tap density−the bulk density)/the tap density×100%; and the Hausner ratio=the tap density/the bulk density.

[5] = High temperature / grinding test, change of crystal form by XRPD; type: physicochemical; conditions: sodium salt; for Stability of the crystal form at a high temperature: XRPD
Description: Crystal forms A and C of dexrabeprazole sodium were placed under different conditions as listed in Table 5 below, and sampled for XRPD detection to investigate the change of crystal forms.

[6] = Test of suspension equilibrium (XRPD); conditions: suspension in acetonitrile
Method: XRPD test (FIGS. 10 & 12-14, Modern Analysis Center, Nanjing University): Instrument model: Thermo Co., Ltd., X'TRA Type X Diffractometer, target: Cu (40 kV, 40 mA), scanning range: 2°-40° (2θvalue), scanning step length: 0.02, scanning speed: 5
The mixture was stirred, together with 10 ml of a solvent at 35° C. and under nitrogen atmosphere, and then sampled for XRPD detection.

[7] = High humidity, RH75 ± 5%, Day 0
[8] = High humidity, RH75 ± 5%, Day 0, sodium salt
[9] = High humidity, RH75 ± 5%, Day 10, sodium salt
[10] = High humidity, RH75 ± 5%, Day 20, sodium salt
[11] = High humidity, RH75 ± 5%, Day 30, sodium salt
[12] = High temperature, 40° C., Day 0
[13] = High temperature, 40° C., Day 0, sodium salt
[14] = High temperature, 40° C., Day 10
[15] = High temperature, 40° C., Day 10, sodium salt
[16] = High temperature, 40° C., Day 20
[17] = High temperature, 40° C., Day 20, sodium salt
[18] = High temperature, 40° C., Day 30
[19] = High temperature, 40° C., Day 30, sodium salt
[20] = Light exposure, 4500 ± 500 Lx, Day 0
[21] = Light exposure, 4500 ± 500 Lx, Day 0, sodium salt
[22] = Light exposure, 4500 ± 500 Lx, Day 10
[23] = Light exposure, 4500 ± 500 Lx, Day 10, sodium salt
[24] = Light exposure, 4500 ± 500 Lx, Day 20
[25] = Light exposure, 4500 ± 500 Lx, Day 20, sodium salt
[26] = Light exposure, 4500 ± 500 Lx, Day 30
[27] = Light exposure, 4500 ± 500 Lx, Day 30, sodium salt

Structure (SMILES): COCCCOc1ccnc(C[S@@+]([O-])c2nc3ccccc3[n-]2)c1C.[Na+] [Amorphous form, R-(+)-2-{[4-(3-methoxypropoxy)-3-methylpyrid-2-yl]methylsulfinyl}-1H-benzimidazole sodium salt, reference compound]
- Hygroscopic moisture (%) ([1]; 0 h): 6.60%
- Hygroscopic moisture (%) ([1]; 24 h): 21.60%
- Hygroscopic moisture (%) ([1]; 48 h): 21.81%

Structure (SMILES): COCCCOc1ccnc(C[S@@+]([O-])c2nc3ccccc3[n-]2)c1C.[Na+] [Crystal form A, R-(+)-2-{[4-(3-methoxypropoxy)-3-methylpyrid-2-yl]methylsulfinyl}-1H-benzimidazole sodium salt, reference compound]
- Appearance character [2, 7]: Off-white
- Relevant materials: Maximum individual impurity (%) [2, 8]: 0.037%
- Relevant materials: Total impurity (%) [2, 8]: 0.098%
- Appearance character ([2]; High humidity, RH75 ± 5%, Day 10): Yellow
- Relevant materials: Maximum individual impurity (%) [2, 9]: 0.029%
- Relevant materials: Total impurity (%) [2, 9]: 0.152%
- Appearance character ([2]; High humidity, RH75 ± 5%, Day 20): Yellow
- Relevant materials: Maximum individual impurity (%) [2, 10]: 0.200%
- Relevant materials: Total impurity (%) [2, 10]: 0.483%
- Appearance character ([2]; High humidity, RH75 ± 5%, Day 30): Yellow
- Relevant materials: Maximum individual impurity (%) [2, 11]: 0.287%
- Relevant materials: Total impurity (%) [2, 11]: 1.495%
- Appearance character [2, 12]: Off-white
- Relevant materials: Maximum individual impurity (%) [2, 13]: 0.037%
- Relevant materials: Total impurity (%) [2, 13]: 0.098%
- Appearance character [2, 14]: Off-white
- Relevant materials: Maximum individual impurity (%) [2, 15]: 0.037%
- Relevant materials: Total impurity (%) [2, 15]: 0.100%
- Appearance character [2, 16]: Off-white
- Relevant materials: Maximum individual impurity (%) [2, 17]: 0.021%
- Relevant materials: Total impurity (%) [2, 17]: 0.145%
- Appearance character [2, 18]: Off-white
- Relevant materials: Maximum individual impurity (%) [2, 19]: 0.019%
- Relevant materials: Total impurity (%) [2, 19]: 0.210%
- Appearance character [2, 20]: Off-white
- Relevant materials: Maximum individual impurity (%) [2, 21]: 0.037%
- Relevant materials: Total impurity (%) [2, 21]: 0.098%
- Appearance character [2, 22]: Off-white
- Relevant materials: Maximum individual impurity (%) [2, 23]: 0.077%
- Relevant materials: Total impurity (%) [2, 23]: 0.133%
- Appearance character [2, 24]: Off-white
- Relevant materials: Maximum individual impurity (%) [2, 25]: 0.099%
- Relevant materials: Total impurity (%) [2, 25]: 0.298%
- Appearance character [2, 26]: Off-white
- Relevant materials: Maximum individual impurity (%) [2, 27]: 0.123%
- Relevant materials: Total impurity (%) [2, 27]: 0.396%
- Hygroscopic moisture (%) ([1]; 0 h): 4.66%
- Hygroscopic moisture (%) ([1]; 24 h): 5.10%
- Hygroscopic moisture (%) ([1]; 48 h): 5.72%
- Determination of angle of repose, Average [3]: Average: 58.89°
- Bulk density [4]: 0.267 g · cm^−3
- Tap density [4]: 0.450 g · cm^−3
- Comparison of XRPD fit charts (change of crystal form) ([5]; grinded in a mortar for 5 min): partially converted to an amorphous form
- Stability of the crystal form at a high temperature [5]: unstable at a high temperature

Structure (SMILES): COCCCOc1ccnc(C[S@@+]([O-])c2nc3ccccc3[n-]2)c1C.[Na+] [Crystal form B, R-(+)-2-{[4-(3-methoxypropoxy)-3-methylpyrid-2-yl]methylsulfinyl}-1H-benzimidazole sodium salt]
- Appearance character [2, 7]: Off-white
- Relevant materials: Maximum individual impurity (%) [2, 8]: 0.029%
- Relevant materials: Total impurity (%) [2, 8]: 0.088%
- Appearance character [2, 9]: Yellow
- Relevant materials: Maximum individual impurity (%) [2, 9]: 0.017%
- Relevant materials: Total impurity (%) [2, 9]: 0.141%
- Appearance character [2, 10]: Yellow
- Relevant materials: Maximum individual impurity (%) [2, 10]: 0.189%
- Relevant materials: Total impurity (%) [2, 10]: 0.426%
- Appearance character [2, 11]: Yellow
- Relevant materials: Maximum individual impurity (%) [2, 11]: 0.280%
- Relevant materials: Total impurity (%) [2, 11]: 1.300%
- Appearance character [2, 12]: Off-white
- Relevant materials: Maximum individual impurity (%) [2, 13]: 0.029%
- Relevant materials: Total impurity (%) [2, 13]: 0.088%
- Appearance character [2, 14]: Off-white
- Relevant materials: Maximum individual impurity (%) [2, 15]: 0.028%
- Relevant materials: Total impurity (%) [2, 15]: 0.090%
- Appearance character [2, 16]: Off-white
- Relevant materials: Maximum individual impurity (%) [2, 17]: 0.015%
- Relevant materials: Total impurity (%) [2, 17]: 0.126%
- Appearance character [2, 18]: Off-white
- Relevant materials: Maximum individual impurity (%) [2, 19]: 0.012%
- Relevant materials: Total impurity (%) [2, 19]: 0.190%
- Appearance character [2, 20]: Off-white
- Relevant materials: Maximum individual impurity (%) [2, 21]: 0.029%
- Relevant materials: Total impurity (%) [2, 21]: 0.088%
- Appearance character [2, 22]: Off-white
- Relevant materials: Maximum individual impurity (%) [2, 23]: 0.059%
- Relevant materials: Total impurity (%) [2, 23]: 0.120%
- Appearance character [2, 24]: Off-white
- Relevant materials: Maximum individual impurity (%) [2, 25]: 0.155%
- Relevant materials: Total impurity (%) [2, 25]: 0.263%
- Appearance character [2, 26]: Off-white
- Relevant materials: Maximum individual impurity (%) [2, 27]: 0.100%
- Relevant materials: Total impurity (%) [2, 27]: 0.360%
- Stability compared with crystal form A ([2]; light exposure, high temperature, and high humidity): comparable to that of crystal form A
- Hygroscopic moisture (%) ([1]; 0 h): 4.72%
- Hygroscopic moisture (%) ([1]; 24 h): 5.18%
- Hygroscopic moisture (%) ([1]; 48 h): 5.75%
- Determination of angle of repose, Average [3]: Average: 36.35°
- Compression coefficient ([4]; (tap density − bulk density)/tap density × 100%): 22.72%
- Bulk density [4]: 0.398 g · cm^−3
- Tap density [4]: 0.515 g · cm^−3
- Hausner ratio ([4]; tap density/bulk density): 1.29

Structure (SMILES): COCCCOc1ccnc(C[S@@+]([O-])c2nc3ccccc3[n-]2)c1C.[Na+] [Crystal form C, R-(+)-2-{[4-(3-methoxypropoxy)-3-methylpyrid-2-yl]methylsulfinyl}-1H-benzimidazole sodium salt]
- Appearance character [2, 7]: Off-white
- Relevant materials: Maximum individual impurity (%) [2, 8]: 0.032%
- Relevant materials: Total impurity (%) [2, 8]: 0.085%
- Appearance character [2, 9]: Off-white
- Relevant materials: Maximum individual impurity (%) [2, 9]: 0.027%
- Relevant materials: Total impurity (%) [2, 9]: 0.094%
- Appearance character [2, 10]: Off-white
- Relevant materials: Maximum individual impurity (%) [2, 10]: 0.015%
- Relevant materials: Total impurity (%) [2, 10]: 0.166%
- Appearance character [2, 11]: Off-white
- Relevant materials: Maximum individual impurity (%) [2, 11]: 0.292%
- Relevant materials: Total impurity (%) [2, 11]: 0.491%
- Appearance character [2, 12]: Off-white
- Relevant materials: Maximum individual impurity (%) [2, 13]: 0.032%
- Relevant materials: Total impurity (%) [2, 13]: 0.085%
- Appearance character [2, 14]: Off-white
- Relevant materials: Maximum individual impurity (%) [2, 15]: 0.030%
- Relevant materials: Total impurity (%) [2, 15]: 0.093%
- Appearance character [2, 16]: Off-white
- Relevant materials: Maximum individual impurity (%) [2, 17]: 0.028%
- Relevant materials: Total impurity (%) [2, 17]: 0.117%
- Appearance character [2, 18]: Off-white
- Relevant materials: Maximum individual impurity (%) [2, 19]: 0.024%
- Relevant materials: Total impurity (%) [2, 19]: 0.136%
- Appearance character [2, 20]: Off-white
- Relevant materials: Maximum individual impurity (%) [2, 21]: 0.032%
- Relevant materials: Total impurity (%) [2, 21]: 0.085%
- Appearance character [2, 22]: Off-white
- Relevant materials: Maximum individual impurity (%) [2, 23]: 0.088%
- Relevant materials: Total impurity (%) [2, 23]: 0.112%
- Appearance character [2, 24]: Off-white
- Relevant materials: Maximum individual impurity (%) [2, 25]: 0.094%
- Relevant materials: Total impurity (%) [2, 25]: 0.245%
- Appearance character [2, 26]: Off-white
- Relevant materials: Maximum individual impurity (%) [2, 27]: 0.113%
- Relevant materials: Total impurity (%) [2, 27]: 0.344%
- Stability compared with crystal form A ([2]; high temperature and high humidity): better than that of crystal form A
- Stability compared with crystal form A ([2]; light exposure): comparable to that of crystal form A
- Hygroscopic moisture (%) ([1]; 0 h): 0.11%
- Hygroscopic moisture (%) ([1]; 24 h): 0.15%
- Hygroscopic moisture (%) ([1]; 48 h): 0.18%
- Stability of the crystal form in suspension equilibrium [6]: better stability than amorphous form and crystal form A
- Stability of the crystal form at a high temperature [5]: keeps stable at a high temperature without crystal transformation
